Experimental data taken from patent publication US6001808A, “Method of treating herpes virus infections with spermostatic gramicidin” (Metatron, Inc., priority 1997, dated 1999).
≈ marks a conversion by molar mass, not a printed value. Like-named read-outs stand apart in the source and are kept apart here.

What was measured:
[1] = tested on: HSV-2; assay: HSV antigen ELISA, viral yield in WI-38 fibroblasts at 24 hours; format: cell-based, herpes simplex virus type 2 (HSV-2)
Method: (§1) The effect of gramicidin on the replication of herpes simplex viruses (HSV) type 1 and 2 has been examined and compared to the effect of acyclovir--the nucleoside analog used in the prior art for the therapy of herpes virus infections. Human WI-38 fibroblasts were inoculated with either type of HSV in the presence of serial dilutions of gramicidin (10-0.001 mcg/ml) and reduction in viral yield was measured at 24 hours by ELISA. […] The average 50% inhibitory dose (IC50) of gramicidin against 3 HSV-1 and 4 HSV-2 solates was equal to 0.3 mcg/ml and was similar to the efficacy of the anti-HSV agent acyclovir (ACV). The IC50 of a single dose of gramicidin required to protect WI-38 from cytolytic effect of HSV was 10 mcg/ml at day 5 postinfection. Importantly, gramicidin suppressed the replication of ACV-resistant thymidine kinase and polymerase HSV mutants at doses effective against ACV-sensitive strains.
(§2) Human embryonic lung fibroblasts WI-38 (CCL-75, ATCC, Rockville, Md.) were grown in RPMI medium 1640 with 10% FBS, L-glutamine, and penicillin/streptomycin (GIBCO, Grand Island, N.Y.) at 37° C. with 5% CO2 air atmosphere. Herpes viruses that were tested for susceptibility to gramicidin are own in Table 1.
(§3) One day prior to the assay WI-38 monolayers were trypsinized with 0.25% trypsin/EDTA (Sigma) and plated in 96-well microculture plates at seeding concentration 10^5 cells per well. The next day triplicate wells of WI-38 monolayers were exposed to serial 10-fold dilutions (range 10 mcg/ml-1 ng/ml) of gramicidin or ACV. Positive control wells and drug-exposed wells containing 180 mcl of medium received 20 mcl ahquots of HSV-1 or HSV-2 preparation at 5,000 TCID50 per well and were incubated further for 24 hours. Thereupon, the supernatants from infected WI-38 fibroblasts were collected and levels of HSV antigen were examined by ELISA (Premier™ HSV, Meridian Diagnostics Inc., Cincinnati, Ohio) according to the manufacturer's instructions. The primary antibody supplied with this ELISA kit recognizes HSV antigens of both virus types. The amount of HSV antigen, corresponding to levels in the inoculum, was subtracted as a blank value from experimental values reached upon virus propagation in host WI-38 cells. IC50 doses were estimated from dose-response curves plotted as a function of log concentrations of drugs.

[2] = tested on: HSV-1; assay: as above; format: cell-based, herpes simplex virus type 1 (HSV-1)
Method: as §1, §2, §3

[3] = tested on: WI-38 cells; assay: Viability of WI-38 cells by MTS assay
Method: (§4) The effect of test compounds on cell viability was measured by two colorimetric assays as follows. WI-38 cells were grown in the presence or absence of ten-fold dilutions of gramicidin or ACV for two days. The cells were then exposed to MTS/phenazine methosulfate as described above. The conditions for the second, lactate dehydrogenase (LDH) assay, were similar to the MTS test except that a different cell viability parameter was measured. This assay quantitatively measures the stable cytosolic enzyme, LDH, that is released upon cell lysis in much the same way as ^51 Cr is released in radioactive assays. The results were evaluated using an enzymatic assay which measures the conversion of INT tetrazolium salt into red formazan product (CytoTox^96, Promega, Madison, Wis.). A standard 96-well plate reader was set to record wavelength absorbance at 490 nm. The residual LDH activity present in incubation medium was subtracted as a blank value. The amount of LDH released from drug-exposed cells was compared to untreated and detergent-lysed controls according to the formula provided by the manufacturer.

[4] = tested on: VR-734 strain of HSV-2; assay: Protection of WI-38 fibroblasts against cytolytic action of HSV, MTS assay day 5; format: cell-based, herpes simplex virus type 2 (HSV-2); details: day 5 postinfection, single dose
Method: Inoculated WI-38 cells were grown in the presence of ten-fold dilutions of gramicidin or ACV for five days until all untreated control cells were dead as a result of lytic HSV infection. The culture wells were then exposed for 4 hours to MTS tetrasolium salt and phenazine methosulfate preparation (Cell Titer^96, Promega, Madison, Wis.) and the optical density of formazan dye was measured in a plate reader at 450 nm with reference filter at 620 nm. The obtained values were then compared to both the absorbance values of dead cells and optical density of uninfected viable cells grown in the same plate. The percent of surviving WI-38 cells in drug-protected cultures was determined from dose-response curves as a function of log concentrations of test drugs.

[5] = tested on: sperm motility; assay: 2-minute sperm immobilization assay (sperm motility by CASA); format: cell-based, human; details: for times higher dose required to achieve the effect of gramicidin: sperm motility, compounds alone
Method: The tests were conducted on unprocessed semen samples. […] Ejaculate samples from 3 normospermic volunteers were collected after 2-4 days of abstinence and allowed to liquefy for 20 minutes at 37° C. The sperm count was within the range of 60-240×10^6 cells/ml and the percentage of motile cells was over 50%. Serial dilutions of gramicidin, nonoxynol-9, EDTA or combinations thereof were mixed with fresh semen and sperm count, motility and morphology were assessed using computer-assisted semen analysis (CASA). Each 50 mcl sample of semen was mixed in a glass tube with predetermined concentration of test compounds, vortexed for 10 seconds, and left at room temperature for 2 minutes. Thereupon, a small 10 mcl portion of the sample was placed on a glass slide and motility of the sperm was evaluated automatically.

[6] = tested on: sperm penetration into lamb cervical mucus; assay: Cervical mucus penetration assay; format: cell-based, human; details: for motility of spermatozoa found in drug-pretreated mucus: at the time of observation, N9 even after 1 hour of incubation
Method: Glass capillary tubes (1 mm×100 mm) were filled with freshly collected lamb cervical mucus and placed vertically into solutions with test compounds as described earlier. After 30 minutes, incubation to allow the diffusion of drugs into mucus, the mucus-containing tubes were dipped vertically into cuvettes with the semen. After 15 minutes, the sperm that moved upwards from the bottom of the capillary tube was evaluated under microscope for traveled distance and the percent of motile sperm.

[7] = tested on: sperm viability; assay: Lactate dehydrogenase (LDH) release assay on sperm; format: cell-based, human; details: high doses, serial dilutions 100 mcg-1 ng per ml
Excerpt: The disruption of the sperm membrane by N9-like detergents such as Triton X-100 or by gramicidin S leads to release of intracellular LDH isoenzymes or membrane-associated LDH-X, and an increase in LDH activity can be measured by assaying the supernatant of sperm suspension. The increase in LDH activity can be thus used as an indicator of drug toxicity since cytosolic LDH is released upon cell lysis in the same way as 51Cr is released in radioactive assays. The assay setting is similar to XTT assay and released LDH is quantitated with commercial enzymatic assay (CytoTox96, Promega, Madison, Wis.). An ordinary plate reader was used to record visible wavelength absorbance at 490 nm. The residual LDH activity usually present in seminal plasma or in incubation medium was subtracted as blank values and the % of toxicity was determined as directed by manufacturer's instruction. This assay is very sensitive and results are obtained within 30 minutes.
(§5) These two methods, XTT and LDH, were used simultaneously on the same semen samples to determine the toxic effect of gramicidin. Both quantitative tests, measuring two independent indicators of sperm viability, indicate that gramicidin is a potent nontoxic agent with antifertility potential.

[8] = tested on: HIV; details: 10 ng/ml; cited from earlier work
[9] = tested on: HSV type 1 and 2; assay: HSV antigen ELISA, summary over HSV-1 and HSV-2 isolates; format: cell-based, herpes simplex viruses (HSV) type 1 and 2
[10] = tested on: WI-38 cells; assay: LDH release from drug-exposed WI-38 cells; details: 2 days of treatment, highest 10 mcg dose
Method: as §4

[11] = tested on: sperm viability; assay: Tetrazolium dye reduction (XTT) assay on sperm; format: cell-based, human; details: highest 100 mcg/ml concentration
Method: The spermatozoa from fertile donors are capable of nitroblue tetrazolium reduction in a same way as the fibroblasts in Example 1. Briefly, sperm were suspended in a 96-well plate in the presence of serial ten-fold dilutions of test compounds and each 180 mcl well received 20 mcl of XTT solution at final concentration 1 mg/ml of XTT (Sigma) with 1% w/v of PMS (Aldrich, Milwaukee, Wis.). Drug untreated spermatozoa served as positive viability references.
as §5

[12] = 0% EDTA, 2 minutes, unprocessed semen
[13] = 0.1% EDTA, 2 minutes, unprocessed semen

Nc1nc2c(ncn2COCCO)c(=O)[nH]1 [Acyclovir, [2-hydroxyethoxymethyl]guanine]
IC50 ([1]; Human alphaherpesvirus 2, WI-38, 24 h, read-out: IC50 on HSV replication by antigen ELISA, VR-734 strain of HSV-2, WI-38 cells, day 1 postinfection): 0.2 µg/mL (≈ 0.888 µM)
IC50 ([1]; Human alphaherpesvirus 2, WI-38, read-out: IC50 by HSV antigen ELISA, HSV type 2 strain 186, ACV-sensitive): 0.1 µg/mL (≈ 0.444 µM)
IC50 ([1]; Human alphaherpesvirus 2, WI-38, read-out: IC50 by HSV antigen ELISA, HSV type 2 strain 8708, TK altered): 9.9 µg/mL (≈ 44 µM)
IC50 ([1]; Human alphaherpesvirus 2, WI-38, read-out: IC50 by HSV antigen ELISA, HSV type 2 strain Kost, TK altered): 15.8 µg/mL (≈ 70.2 µM)
IC50 ([1]; Human alphaherpesvirus 2, WI-38, read-out: IC50 by HSV antigen ELISA, HSV type 2 strain VR-734, ACV-sensitive): 0.2 µg/mL (≈ 0.888 µM)
IC50 ([2]; Human alphaherpesvirus 1, WI-38, read-out: IC50 by HSV antigen ELISA, HSV type 1 strain DM2.1, TK-): 77.3 µg/mL (≈ 343 µM)
IC50 ([2]; Human alphaherpesvirus 1, WI-38, read-out: IC50 by HSV antigen ELISA, HSV type 1 strain KOS, ACV-sensitive): 0.4 µg/mL (≈ 1.78 µM)
IC50 ([2]; Human alphaherpesvirus 1, WI-38, read-out: IC50 by HSV antigen ELISA, HSV type 1 strain PAAr, Polymerase-): 52.4 µg/mL (≈ 233 µM)
toxicity to host WI-38 cells [3]: not toxic
IC50 ([4]; Human alphaherpesvirus 2, WI-38, 120 h, read-out: IC50 for protection of WI-38 from cytolytic effect of HSV): 0.2 µg/mL (≈ 0.888 µM)

O=C(O)CN(CCN(CC(=O)O)CC(=O)O)CC(=O)O [EDTA, ethylenediaminetetraacetic acid]
IC100 on sperm motility [5, 12]: 5,000 mcg/ml
times higher dose required to achieve the effect of gramicidin [5]: ≥ 1250 times
IC100 in cervical mucus penetration assay ([6]; 0% EDTA): 1,200 mcg/ml

CCCCCCCCCc1ccc(OCCOCCOCCOCCOCCOCCOCCOCCOCCO)cc1 [Nonoxynol-9, nonoxynol-9]
enhancement in activity upon combination with EDTA [5]: less than a two-fold enhancement
IC100 on sperm motility [5, 12]: 200 µg/mL
IC100 on sperm motility [5, 13]: 125 µg/mL
effect on sperm motility ([5]; at 4 mcg/ml, 2 minutes): no effect
times higher dose required to achieve the effect of gramicidin [5]: At least 50 times
IC100 in cervical mucus penetration assay ([6]; 0% EDTA, no IC100 at the highest tested dose): > 1000 µg/mL
IC100 in cervical mucus penetration assay ([6]; 0.1% EDTA): 100 µg/mL
IC50 ([6]; Homo sapiens, Sperm, 0% EDTA, footnote: value represents IC50): 900 µg/mL (≈ 1460 µM)
motility of spermatozoa found in drug-pretreated mucus [6]: retained motility

gramicidin D
IC100 on sperm motility [5, 12]: 4 µg/mL
IC100 on sperm motility [5, 13]: 0.01 µg/mL
reversibility of effect on sperm motility ([5]; after washing sperm and resuspending in Earle's balanced salt solution): irreversible effect
times more potent than N9 ([5]; sperm immobilization, without EDTA): 50 times
IC100 on sperm motility ([5]; with 0.1% of EDTA): 0.01 µg/mL
effect on LDH release from sperm [7]: negligible
IC100 in cervical mucus penetration assay ([6]; 0% EDTA): 3 µg/mL
IC100 in cervical mucus penetration assay ([6]; 0.1% EDTA): 0.001 µg/mL
motility of spermatozoa found in drug-pretreated mucus [6]: immotile
concentration that completely prevented penetration of sperm into mucus ([6]; with 0.1% of EDTA): 1 ng/mi
IC50 by HSV antigen ELISA ([1]; HSV type 2 strain 186, ACV-sensitive): 0.1 µg/mL
IC50 by HSV antigen ELISA ([1]; HSV type 2 strain 8708, TK altered): 0.3 µg/mL
IC50 by HSV antigen ELISA ([1]; HSV type 2 strain Kost, TK altered): 0.2 µg/mL
IC50 by HSV antigen ELISA ([1]; HSV type 2 strain VR-734, ACV-sensitive): 0.3 µg/mL
IC50 on HSV replication by antigen ELISA ([1]; VR-734 strain of HSV-2, WI-38 cells, day 1 postinfection): 0.3 µg/mL
IC50 by HSV antigen ELISA ([2]; HSV type 1 strain DM2.1, TK-): 0.3 µg/mL
IC50 by HSV antigen ELISA ([2]; HSV type 1 strain KOS, ACV-sensitive): 0.2 µg/mL
IC50 by HSV antigen ELISA ([2]; HSV type 1 strain PAAr, Polymerase-): 0.4 µg/mL
activity against lab strains and clinical isolates of HIV [8]: active
average 50% inhibitory dose (IC50) ([9]; average against 3 HSV-1 and 4 HSV-2 isolates): 0.3 µg/mL
IC50, reduction in viral yield by ELISA ([9]; both HSV type 1 and 2, 24 hours, range over isolates): 0.1 to 0.4 µg/mL
excess LDH released, relative to baseline of untreated controls [10]: ≤ 15%
effect on viability (metabolic activity) of WI-38 cells ([3]; MTS, day 2, highest tested 10 mcg/ml dose): no significant effect
toxicity to host WI-38 cells ([3]; at concentrations that exceeded IC50 by at least two orders of magnitude): not toxic
effect on mitochondrial hydrogenases of sperm (XTT) [11]: no effect
IC50 for protection of WI-38 from cytolytic effect of HSV [4]: 10 µg/mL
